In experiment [1] the target is T1, NRP1 b1 domain (Homo sapiens, UniProt O14786). Description: ITC binding to NRP1 b1 domain.
Experiment [2] has as its target T1, NRP1 b1 domain. Kind of experiment: ITC competition: EG00229 versus S1 CendR peptide for NRP1 b1. It counts as binding. Conditions: pre-incubation with EG00229, N=3.
Another experiment relates to SARS-CoV-2. It counts as cell-based.
A further experiment concerns NRP1. Conditions: selective NRP1 antagonist, binds the b1 CendR binding pocket; ref [14]; cited from earlier work.
Experiment [3] deals with T2, NRP1 b1 domain.
T2 chain: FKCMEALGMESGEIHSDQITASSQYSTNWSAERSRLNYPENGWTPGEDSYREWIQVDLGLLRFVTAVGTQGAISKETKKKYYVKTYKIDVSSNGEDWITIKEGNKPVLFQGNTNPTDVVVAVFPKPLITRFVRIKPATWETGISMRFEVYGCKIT
Description: ITC. (ITC needs no label: the signal is the heat of the interaction.)

Experiment [4] deals with T2, NRP1 b1 domain. Kind of experiment: ITC.

Entries after “also recorded” stand apart in the source; their conditions may differ. Where two headings read alike, the source gives them in different places. Where no end group is shown, it is not given here.

As for NSPRRAR [S1 CendR peptide], the Kd on NRP1 b1 domain [1] (affinity for NRP1 b1 domain, pH 7.5, N=3, fit with 1-to-1 ratio binding) was found to be 20.3 µM.

As for `NC(N)=NCCC[C@H](NC(=O)c1sccc1NS(=O)(=O)c1cccc2nsnc12)C(=O)O` [EG00229], the “inhibition of S1 CendR peptide binding to b1” value on NRP1 b1 domain [2] was “blocks S1 CendR peptide binding; also recorded: inhibited the direct binding between b1 and the S1 CendR peptide”. Also, the “reduction of SARS-CoV-2 infection by EG00229” value with SARS-CoV-2 was “reduced the efficiency of SARS-CoV-2 infection”. The Kd at NRP1 b1 domain [1] (read-out: Kd for NRP1 b1 domain, EG00229, pH 5.5, N=3, fit with 1-to-1 ratio binding) worked out at 11 µM; on NRP1 b1 domain [1] (read-out: Kd for NRP1 b1 domain, EG00229, pH 7.5, N=3, fit with 1-to-1 ratio binding), 5.1 µM. Further, the “inhibition of VEGF-A binding” value with NRP1 is listed as “inhibits VEGF-A binding”.

For the molecule NSPRRAR [S1 CendR peptide (679NSPRRAR685)], the Kd was 20.3 µM with NRP1 b1 domain [3] and 13 µM with NRP1 b1 domain [4].

Values taken from paper PMC7612957 (Science (New York, N.Y.), 2020).
